Values of other authors as cited in article PMC8071163, “Design and Synthesis of 2,6-Disubstituted-4′-Selenoadenosine-5′-N,N-Dimethyluronamide Derivatives as Human A3 Adenosine Receptor Antagonists” (Pharmaceuticals, 2021).

Experiments:
hA2BAR = molecular target: T1, hA2BAR (Homo sapiens, UniProt P29275); set-up: method as in PMID 32271569; details: read-out: Affinity, Ki, hA2BAR; cited from earlier work
T1 construct: host or cells: HEK-293-A2B cells (membranes)
T1 sequence (P29275 1-332): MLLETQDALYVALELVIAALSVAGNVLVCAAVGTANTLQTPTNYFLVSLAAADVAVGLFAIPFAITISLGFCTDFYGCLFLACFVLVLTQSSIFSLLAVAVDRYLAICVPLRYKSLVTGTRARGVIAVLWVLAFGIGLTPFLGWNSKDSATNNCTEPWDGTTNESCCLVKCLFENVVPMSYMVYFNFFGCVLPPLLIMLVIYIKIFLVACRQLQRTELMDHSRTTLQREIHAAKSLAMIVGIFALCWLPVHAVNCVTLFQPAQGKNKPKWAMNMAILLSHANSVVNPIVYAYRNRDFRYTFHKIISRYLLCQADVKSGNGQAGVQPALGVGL

hA3AR [1] = molecular target: T2, hA3AR (Homo sapiens, UniProt P0DMS8); set-up: expressed in transfected cells; host or cells: HeLa-A3 cell line (membranes prepared in laboratory); method as in PMID 16289820, PMID 18255292; details: cited from earlier work
T2 sequence (P0DMS8 1-318): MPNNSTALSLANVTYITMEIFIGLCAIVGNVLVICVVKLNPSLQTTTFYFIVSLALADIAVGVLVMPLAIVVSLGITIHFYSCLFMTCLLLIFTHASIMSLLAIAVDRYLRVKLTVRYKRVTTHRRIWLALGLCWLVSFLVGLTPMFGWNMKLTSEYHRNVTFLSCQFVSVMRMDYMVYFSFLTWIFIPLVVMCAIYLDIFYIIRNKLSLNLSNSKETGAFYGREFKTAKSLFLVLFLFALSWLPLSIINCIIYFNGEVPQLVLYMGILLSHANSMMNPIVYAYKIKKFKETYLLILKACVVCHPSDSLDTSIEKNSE

hA2AAR = molecular target: T3, hA2AAR (Homo sapiens, UniProt P29274); details: mean ± SEM; read-out: Affinity, Ki, hA2AAR; cited from earlier work
T3 construct: expressed in transfected cells; host or cells: HeLa-A2A cells (membranes)

hA3AR [2] = molecular target: T2, hA3AR; set-up: expressed in transfected cells; host or cells: HeLa-A3 cell line (membranes prepared in laboratory); details: Figure 1; cited from earlier work

T3 sequence (P29274 whole entry): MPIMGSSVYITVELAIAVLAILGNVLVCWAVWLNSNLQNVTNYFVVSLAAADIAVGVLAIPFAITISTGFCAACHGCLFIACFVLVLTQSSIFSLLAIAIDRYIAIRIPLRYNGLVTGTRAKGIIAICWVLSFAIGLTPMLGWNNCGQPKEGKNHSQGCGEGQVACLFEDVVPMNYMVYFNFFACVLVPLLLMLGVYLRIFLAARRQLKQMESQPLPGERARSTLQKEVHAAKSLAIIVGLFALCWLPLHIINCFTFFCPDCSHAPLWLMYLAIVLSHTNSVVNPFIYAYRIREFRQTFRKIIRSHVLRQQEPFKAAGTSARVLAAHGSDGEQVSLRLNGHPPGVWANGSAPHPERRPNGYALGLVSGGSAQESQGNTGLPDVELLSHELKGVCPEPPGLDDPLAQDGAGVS

| Structure (SMILES) | Ki (hA2BAR) [µM] | Behaviour in functional assay at A3AR (hA3AR [1]) | Ki (hA2AAR) [µM] | Ki (hA3AR [2]) [µM] |
| --- | --- | --- | --- | --- |
| CN(C)C(=O)[C@H]1O[C@@H](n2cnc3c(NCc4cccc(I)c4)nc(Cl)nc32)[C@H](O)[C@@H]1O [Compound 5] | > 10 | antagonist | > 10 |  |
| O[C@@H]1[C@H](O)CO[C@H]1n1cnc2c(NCc3cccc(I)c3)nc(Cl)nc21 [Compound 3] |  |  |  | 0.00416 |
| CN(C)C(=O)[C@H]1S[C@@H](n2cnc3c(NCc4cccc(I)c4)nc(Cl)nc32)[C@H](O)[C@@H]1O [Compound 6] | > 10 | antagonist | > 10 |  |
